The values that follow come from patent US20020168327A1, “Treatment of dandruff” (Unilever Home & Personal Care USA, Division of Conopco, Inc., priority 2001, published 2002).

Data set [1] can be described thus: In vitro skin penetration study, Franz diffusion cells, radiolabelled shampoo. As to conditions: 6-fold diluted shampoo, one minute contact then washed off; 3H label; p<0.05. The format is in vitro ADME, human. As to the method: Radiolabelled formulations were prepared using formulations spiked with either ^3H Lysine or ^3H glyceryl trioleate in sunflower seed oil. The total balance of each nutrient was brought up to 0.01% by weight using non-labelled cold material. Excised human full thickness skin was obtained and placed in between the two compartments of Franz diffusion cells. The skin is maintained by filling the receptor chamber of the cell with phosphate buffered saline with the cells placed in a water bath at 37° C. to maintain a surface skin tissue of about 32° C. […] The experimental procedure was as follows:
6-fold diluted shampoo was applied to the skin, left for one minute and washed off. The skin was then separated into 3:
remainder of the epidermis (viable) is then removed using heat separation (identified as the epidermal section)
Each of these layers was analysed for radioactivity and the amount of material penetrated calculated.
Using the in-vitro skin penetration studies, the amount of penetrated material can be quantified as a snap shot in time. From the skin sectioning process, the location of the penetrant at the particular point in time can be measured.

In data set [2] the test system is ceramide levels in stratum corneum. Description: Ceramide production in skin: test products applied to the volar forearm for four weeks, stratum corneum tape stripping. The format is in vivo, human. As to conditions: responder subset of subjects; 1.0% of each active in ethanol/propylene glycol; twice daily for four weeks on volar forearm. As to the method: Tests on the ability of compositions to increase ceramide production in skin were carried out. The formulation pairs tested were: 1.0% tetraacetyl phytosphingosine (TAPS) vs Vehicle 1.0% TAPS+1.0% juniperic acid+1.0% linoleic acid vs Vehicle. Vehicle=ethanol/propylene glycol (1:1) plus 0.2% by weight Glydant Plus™. […] The studies were conducted as double-blind paired comparisons, with treatment assignments randomized. Subjects first completed a four-day washout phase. During the four-week application phase, test products were applied twice daily to the volar surface of the forearms, using dropper bottles to deliver 0.1 ml of test product to each site; each subject applied a test formulation to one site and the vehicle formulation to the adjacent site. After four weeks of application, samples of stratum corneum were obtained by tape stripping. A subset of subjects who responded to the treatments as expected, with a significant increase in ceramide levels, data from subjects showing increased ceramides was broken out. In each case, responder subjects represented a cross-section of the whole panel; they were not predominantly of one sex or age group. […] Increases were seen across all ceramide types. The increases for ceramides 1 and 2 were dramatically higher than for the other ceramide types.

Where “and” joins values, the source holds several entries; their conditions need not be identical. Equal entries are not always repeated.

`NCCCC[C@H](N)C(=O)O` [lysine]: the “skin penetration (skin layers reached)” value in data set [1] is “penetrate not only into the stratum corneum but also deeper into the epidermis and dermis”.

Consider tetraacetyl phytosphingosine [TAPS], for which the “mean increase in ceramide levels compared with vehicle” value in data set [2] was 30% and 25%.
